The results in this text go back to PubChem BioAssay AID282 (DTP/NCI, 2004).

For this assay, the system named is BDF1 mice, L1210 terephthalanilide-resistant leukemia ip, survival T/C. As to the kind of experiment: NCI In Vivo Anticancer Drug Screen. Data for tumor model L1210 Leukemia resistant to A Terephthalanilide; NSC 38280 (intraperitoneal) in B6D2F1 (BDF1) mice. As to conditions: endpoint: mean survival time, higher = longer survival. As to the method:
The antitumor activity of compounds was measured in mice bearing transplantable tumors. Survival or tumor size were measured and the results are expressed as the measurement made in the treated group (T) divided by the measurement made in the vehicle treated control group (C). The tumor model used in this assay is L1210 Leukemia resistant to A Terephthalanilide; NSC 38280 (intraperitoneal) in B6D2F1 (BDF1) mice

Where [1] appears, read: dose: 250.0 mg/kg/injection, schedule: Q01DX Z (ip), vehicle: saline.
Where [2] appears, read: dose: 375.0 mg/kg/injection, schedule: Q01DX Z (ip), vehicle: saline.
The mark [3] stands for this setting: dose: 500.0 mg/kg/injection, schedule: Q01DX Z (ip), vehicle: saline.
Setting [4] is: dose: 25.0 mg/kg/injection, schedule: Q01DX Z (ip), vehicle: carboxymethylcellulose (CMC).
Where [5] appears, read: dose: 50.0 mg/kg/injection, schedule: Q01DX Z (ip), vehicle: carboxymethylcellulose (CMC).
Where [6] appears, read: dose: 100.0 mg/kg/injection, schedule: Q01DX Z (ip), vehicle: carboxymethylcellulose (CMC).
Where [7] appears, read: dose: 200.0 mg/kg/injection, schedule: Q01DX Z (ip), vehicle: carboxymethylcellulose (CMC).
Where [8] appears, read: dose: 20.0 mg/kg/injection, schedule: Q01DX010 (ip), vehicle: saline.
Setting [9] is: dose: 40.0 mg/kg/injection, schedule: Q01DX010 (ip), vehicle: saline.
The mark [10] stands for this setting: dose: 5.0 mg/kg/injection, schedule: Q01DX010 (ip), vehicle: saline.
[11] abbreviates: dose: 6.25 mg/kg/injection, schedule: Q01DX Z (ip), vehicle: carboxymethylcellulose (CMC).
Setting [12] is: dose: 10.0 mg/kg/injection, schedule: Q01DX010 (ip), vehicle: saline.

Several values for one entry are separate records, joined by “and”; a condition that tells them apart may be missing. Equal entries are not always repeated. Inconclusive results and toxic doses are left out.

Consider `COc1cc(-c2ccc(Nc3ccccc3C(=O)O)c(OC)c2)ccc1Nc1ccccc1C(=O)O`, for which, for the setting “dose: 67.0 mg/kg/injection, schedule: Q01DX010 (ip), vehicle: saline”, the T/C is 150 % of control and 159 % of control.
For `O=c1cnn(C2OC(CO)C(O)C2O)c(=O)[nH]1` (stereo not drawn), the T/C (dose: 50.0 mg/kg/injection, schedule: Q01DX Z (ip), vehicle: saline) is 172 % of control; the T/C (dose: 100.0 mg/kg/injection, schedule: Q01DX Z (ip), vehicle: saline) was 164 % of control; the T/C (dose: 187.0 mg/kg/injection, schedule: Q01DX Z (ip), vehicle: saline) is 181 % of control; the T/C under setting [1] is 224 % of control; the T/C under setting [2] is 218 % of control; the T/C under setting [3] was 225 % of control. Further, the T/C is, setting by setting: (dose: 750.0 mg/kg/injection, schedule: Q01DX Z (ip), vehicle: saline) 222 % of control; (dose: 800.0 mg/kg/injection, schedule: Q01DX010 (ip), vehicle: saline) 167 % of control; (dose: 1000.0 mg/kg/injection, schedule: Q01DX Z (ip), vehicle: saline) 182 % of control; (dose: 1600.0 mg/kg/injection, schedule: Q01DX010 (ip), vehicle: saline) 86 % of control.
As to `C[C@H]1C(=O)O[C@@H]2CCN3CC=C(COC(=O)[C@](C)(O)[C@@]1(C)O)[C@H]23`, the T/C was 97 % of control (dose: 3.13 mg/kg/injection, schedule: Q01DX010 (ip), vehicle: saline); 102 % of control (dose: 6.25 mg/kg/injection, schedule: Q01DX010 (ip), vehicle: saline); 97 % of control and 106 % of control (dose: 12.5 mg/kg/injection, schedule: Q01DX010 (ip), vehicle: saline); 103 % of control and 106 % of control (dose: 25.0 mg/kg/injection, schedule: Q01DX010 (ip), vehicle: saline); 107 % of control under setting [4]; 100 % of control (dose: 50.0 mg/kg/injection, schedule: Q01DX010 (ip), vehicle: saline). Also, the T/C runs as follows: under setting [5], 100 % of control; under setting [6], 119 % of control; under setting [7], 161 % of control.
Consider `O=c1[nH]c(=O)n(C2CC(O)C(CO)O2)cc1Br` (stereo not drawn), for which the T/C is, setting by setting: (dose: 62.5 mg/kg/injection, schedule: Q01DX Z (ip), vehicle: carboxymethylcellulose (CMC)) 110 % of control; (dose: 500.0 mg/kg/injection, schedule: Q01DX Z (ip), vehicle: carboxymethylcellulose (CMC)) 119 % of control.
Turning to `CN(C)c1nc(N(C)C)nc(N(C)C)n1`, the T/C was 94 % of control and 95 % of control (dose: 18.8 mg/kg/injection, schedule: Q01DX010 (ip), vehicle: saline); 94 % of control and 100 % of control (dose: 37.5 mg/kg/injection, schedule: Q01DX010 (ip), vehicle: saline); 94 % of control and 99 % of control (dose: 75.0 mg/kg/injection, schedule: Q01DX010 (ip), vehicle: saline); 110 % of control (dose: 87.5 mg/kg/injection, schedule: Q01DX Z (ip), vehicle: other); 96 % of control and 99 % of control (dose: 150.0 mg/kg/injection, schedule: Q01DX010 (ip), vehicle: saline); 119 % of control (dose: 175.0 mg/kg/injection, schedule: Q01DX Z (ip), vehicle: other).
Regarding `CN(C)CC(=O)c1ccc(O)c(O)c1`, the T/C was 104 % of control (dose: 134.0 mg/kg/injection, schedule: Q01DX010 (ip), vehicle: saline); 114 % of control (dose: 135.0 mg/kg/injection, schedule: Q01DX010 (ip), vehicle: saline); 104 % of control and 105 % of control (dose: 200.0 mg/kg/injection, schedule: Q01DX010 (ip), vehicle: saline); 120 % of control and 97 % of control (dose: 300.0 mg/kg/injection, schedule: Q01DX010 (ip), vehicle: saline); 121 % of control and 110 % of control (dose: 450.0 mg/kg/injection, schedule: Q01DX010 (ip), vehicle: saline).
As for `Cn1c(O)c(N=NC(N)=S)c2ccccc21`, the T/C was 93 % of control under setting [4], 90 % of control under setting [5], 87 % of control under setting [6] and 89 % of control under setting [7].
As to `NC(=O)N(CCCl)N=O`, the T/C was 162 % of control (dose: 0.5 mg/kg/injection, schedule: Q01DX010 (ip), vehicle: saline); 165 % of control (dose: 1.0 mg/kg/injection, schedule: Q01DX010 (ip), vehicle: saline); 348 % of control (dose: 1.0 mg/kg/injection, schedule: Q01DX Z (ip), vehicle: saline); 252 % of control (dose: 2.0 mg/kg/injection, schedule: Q01DX Z (ip), vehicle: saline); 110 % of control (dose: 6.0 mg/kg/injection, schedule: Q01DX Z (ip), vehicle: saline).
With `OCC1OC(n2cnc3c(=S)nc[nH]c32)C(O)C1O` (stereo not drawn), the T/C under setting [8] is 111 % of control; the T/C under setting [9] was 119 % of control; the T/C (dose: 160.0 mg/kg/injection, schedule: Q01DX010 (ip), vehicle: saline) was 162 % of control.
As to `O=c1[nH]cc(F)c(=O)[nH]1`, the T/C by setting is: (dose: 0.37 mg/kg/injection, schedule: Q01DX Z (ip), vehicle: carboxymethylcellulose (CMC)) 102 % of control; (dose: 0.75 mg/kg/injection, schedule: Q01DX Z (ip), vehicle: carboxymethylcellulose (CMC)) 114 % of control; (dose: 1.5 mg/kg/injection, schedule: Q01DX Z (ip), vehicle: carboxymethylcellulose (CMC)) 117 % of control; under setting [10], 119 % of control; under setting [11], 175 % of control; under setting [12], 119 % of control. The T/C runs as follows: (dose: 12.5 mg/kg/injection, schedule: Q01DX Z (ip), vehicle: carboxymethylcellulose (CMC)) 185 % of control; under setting [8], 181 % of control and 198 % of control; under setting [4], 227 % of control; under setting [9], 104 % of control and 110 % of control; under setting [6], 94 % of control and 102 % of control.
Turning to `O=CN(O)CC(=O)O`, the T/C runs as follows: (dose: 125.0 mg/kg/injection, schedule: Q01DX010 (ip), vehicle: saline) 93 % of control; (dose: 125.0 mg/kg/injection, schedule: Q01DX Z (ip), vehicle: saline) 100 % of control; (dose: 250.0 mg/kg/injection, schedule: Q01DX010 (ip), vehicle: saline) 93 % of control; under setting [1], 91 % of control; under setting [2], 101 % of control; (dose: 500.0 mg/kg/injection, schedule: Q01DX010 (ip), vehicle: saline) 101 % of control. Also, the T/C under setting [3] was 97 % of control.
With `Cc1cc(N(CCCl)CCCl)ccc1N=Nc1ccccc1C(=O)O`, the T/C was 105 % of control (dose: 0.5 mg/kg/injection, schedule: Q01DX Z (ip), vehicle: carboxymethylcellulose (CMC)); 102 % of control (dose: 1.0 mg/kg/injection, schedule: Q01DX Z (ip), vehicle: carboxymethylcellulose (CMC)); 115 % of control (dose: 2.0 mg/kg/injection, schedule: Q01DX Z (ip), vehicle: carboxymethylcellulose (CMC)); 108 % of control and 113 % of control under setting [10]; 111 % of control under setting [11]; 116 % of control and 120 % of control under setting [12]. For the same compound, the T/C is 118 % of control and 119 % of control under setting [8]; 115 % of control under setting [4]; 112 % of control (dose: 37.5 mg/kg/injection, schedule: Q01DX Z (ip), vehicle: carboxymethylcellulose (CMC)); 100 % of control under setting [5].
